Test results: paper PMC3083246 (Journal of medicinal chemistry, 2011)
Several values for one entry are separate records, joined by “and”; a condition that tells them apart may be missing. Equal values may be shown once. Read-outs that look alike come from different tables or passages of the source. Each block holds one molecule with its values, some of them ahead of it.

Tests used:
Mt ODCase [1] = molecular target: T1, Mt ODCase (Methanothermobacter thermautotrophicus, UniProt O26232); experiment: Reversible, competitive inhibition of Mt ODCase; type: biochemical, Methanobacterium thermoautotrophicum
human ODCase [2] = molecular target: T2, human ODCase (Homo sapiens, UniProt P11172); experiment: Reversible, competitive inhibition of human ODCase; type: biochemical
Mt ODCase [3] = molecular target: T1, Mt ODCase; experiment: Time-dependent inactivation of Mt ODCase; type: biochemical, Methanobacterium thermoautotrophicum
ODCase = ODCase (Methanothermobacter thermautotrophicus, UniProt O26232); experiment: Mass spectral analysis of enzyme-inhibitor complexes; design: species or system Methanobacterium thermoautotrophicum; details: enzyme incubated with inhibitor; identical results with human ODCase
Mt ODCase [4] = molecular target: T1, Mt ODCase; details: cited from earlier work
human ODCase [5] = molecular target: T2, human ODCase; details: read-out: ODCase Ki, human; competitive inhibition; ref [15],[16],[17]; cited from earlier work
Mt ODCase [6] = molecular target: T1, Mt ODCase; details: cited from earlier work; remark: listed apart in the source
[7] = tested on: OCI-AML-1 cell lines (acute myeloid leukemia); experiment: Anticancer activity in cell-based assay; details: AML1, read-out: IC50, AML-1
[8] = tested on: Plasmodium falciparum (3D7); details: read-out: IC50, Pf (3D7); ref [21]; cited from earlier work
CHO = details: read-out: IC50, CHO; ref [21]; cited from earlier work
[9] = tested on: OCI-AML-1 cell lines (acute myeloid leukemia); details: read-out: IC50, AML-1; ref [17]; cited from earlier work
[10] = tested on: Plasmodium falciparum (3D7); experiment: Antimalarial activity in cell-based assay; details: 3D7, read-out: IC50, Pf (3D7)
[11] = ODCase Ki, Mt, competitive inhibition, ITC, 55°C

SMILES: N#Cc1cc(=O)[nH]c(=O)n1[C@@H]1O[C@H](COP(=O)(O)O)[C@@H](O)[C@H]1F [Compound 35, 6-Cyano-2′-deoxy-2′-fluoro-β-D-uridine-5′-O-monophosphate]
Ki (Mt ODCase [1]; [11]): 0.037 ± 0.0025 mM | Ki (human ODCase [2]): > 2000 µM | inhibition of the catalytic activity of human ODCase (human ODCase [2]; up to a concentration of 2 mM): did not inhibit | KI (inactivation) (Mt ODCase [3]; read-out: KI, equilibrium inhibition constant of inactivation, Mt ODCase, time-dependent inactivation): 30000 ± 6000 µM | kinact (Mt ODCase [3]; read-out: kinact, Mt ODCase): 0.000556 s⁻¹ | enzyme-inhibitor complex by mass spectrometry (ODCase): covalent complex

SMILES: N#Cc1cc(=O)[nH]c(=O)n1[C@@H]1O[C@H](COP(=O)(O)O)[C@@H](O)[C@H]1O [Compound 11, 6-CN-UMP]
Ki (Mt ODCase [4]; read-out: ODCase Ki, Mt, competitive inhibition, ref [15],[16],[17]): 0.0286 ± 0.0021 mM | Ki (human ODCase [5]): 204 ± 11 µM

SMILES: [N-]=[N+]=Nc1c(F)c(=O)[nH]c(=O)n1[C@@H]1O[C@H](COP(=O)(O)O)[C@@H](O)[C@H]1O [Compound 12, 6-azido-5-fluoro-UMP]
kinact, Mt ODCase (Mt ODCase [6]; first-order rate of inactivation, ref [17]): 41 ± 3 h⁻¹ | Ki (Mt ODCase [6]; read-out: KI, Mt ODCase, time-dependent inactivation, ref [17]): 18.2 ± 0.0036 µM

IC50 [7]: > 50 µM
SMILES: N#Cc1cc(=O)[nH]c(=O)n1[C@@H]1O[C@H](CO)[C@@H](O)[C@H]1F [Compound 29, 6-Cyano-2′-deoxy-2′-fluoro-β-D-uridine]

SMILES: O=c1cc(I)n([C@@H]2O[C@H](CO)[C@@H](O)[C@H]2O)c(=O)[nH]1 [Compound 6-I-uridine, 6-iodouridine]
IC50 [8]: 6.2 ± 0.7 µM | IC50 (CHO): 366 ± 45 µM

SMILES: O=c1cc(I)n([C@@H]2O[C@H](COP(=O)(O)O)[C@@H](O)[C@H]2O)c(=O)[nH]1 [Compound 10, 6-iodo-UMP]
second-order rate constant relative to 2′-deoxy-2′-fluoro analog 33 (Mt ODCase [3]; higher than 33): ~ 5 orders of magnitude | kobs/[I], M. thermoautotrophicum ODCase (Mt ODCase [6]; irreversible inactivation, ref [16],[22]): 260000 M⁻¹ s⁻¹ | kinact (Mt ODCase [6]; text value for the ribofuranosyl analog, ref [16],[22]): 260000 h⁻¹

SMILES: O=c1cnn([C@@H]2O[C@H](CO)[C@@H](O)[C@H]2O)c(=O)[nH]1 [Compound 5, 6-azauridine]
IC50 [9]: 6.1 µM

SMILES: NC(=O)c1cc(=O)[nH]c(=O)n1[C@@H]1O[C@H](COP(=O)(O)O)[C@@H](O)[C@H]1O [Compound 6-CONH2-UMP, 6-Amido-UMP]
Ki (Mt ODCase [4]; read-out: Ki, Mt ODCase, text value in mM, ref [15],[21]): 1.32 ± 0.04 mM | Ki (Mt ODCase [4]; read-out: ODCase Ki, Mt, competitive inhibition, ref [15],[21]): 0.00132 ± 4e-05 mM

IC50 [10]: 0.022 ± 0.002 µM
SMILES: CCN(CC)CCCC(C)Nc1ccnc2cc(Cl)ccc12 (centres unmarked) [Chloroquine]

IC50 [7]: > 50 µM
SMILES: N#Cc1cn([C@@H]2O[C@H](CO)[C@@H](O)[C@H]2F)c(=O)[nH]c1=O [Compound 31, 5-Cyano-2′-deoxy-2′-fluoro-β-D-uridine]

SMILES: NC(=O)c1cc(=O)[nH]c(=O)n1[C@@H]1O[C@H](COP(=O)(O)O)[C@@H](O)[C@H]1F [Compound 36, 6-Amido-2′-deoxy-2′-fluoro-β-D-uridine-5′-O-monophosphate]
Ki (Mt ODCase [1]; Ki, Mt ODCase, text values in mM): > 3 mM and 3.32 mM | Ki (Mt ODCase [1]; [11]): 3.32 ± 0.176 mM | Ki (human ODCase [2]): > 3000 µM

IC50 [7]: > 50 µM
SMILES: [N-]=[N+]=Nc1cc(=O)[nH]c(=O)n1[C@@H]1O[C@H](CO)[C@@H](O)[C@H]1F [Compound 28, 6-Azido-2′-deoxy-2′-fluoro-β-D-uridine]

SMILES: N#Cc1cn([C@@H]2O[C@H](COP(=O)(O)O)[C@@H](O)[C@H]2F)c(=O)[nH]c1=O [Compound 37, 5-Cyano-2′-deoxy-2′-fluoro-β-D-uridine-5′-O-monophosphate]
Ki (Mt ODCase [1]; [11]): 0.36 ± 0.023 mM | Ki (human ODCase [2]): 759 ± 88 µM

IC50 [7]: > 50 µM
SMILES: O=c1cc(I)n([C@@H]2O[C@H](CO)[C@@H](O)[C@H]2F)c(=O)[nH]1 [Compound 27, 2′-Deoxy-2′-fluoro-6-iodo-β-D-uridine]

IC50 [7]: > 50 µM
SMILES: NC(=O)c1cc(=O)[nH]c(=O)n1[C@@H]1O[C@H](CO)[C@@H](O)[C@H]1F [Compound 30, 6-Amido-2′-deoxy-2′-fluoro-β-D-uridine]
